Assays:
[1] = test system: ATF4 expression, HEK293T cells carrying the ATF4 luciferase reporter; assay: ATF4 expression inhibition assay (ATF4 luciferase reporter); assay type: cell-based; settings: Homo sapiens, HEK-293T, 100 nM thapsigargin, 3 hours
Method: The ATF4 reporter was prepared by fusing the human full length 5′UTR of ATF4 (NCBI Accession No. BC022088.2) upstream of the firefly luciferase coding sequence lacking the initiator methionine. The fused sequence was cloned into pLenti-EFla-C-Myc-DDK-IRES-Puro cloning vector (Origen #PS100085) using standard methods. Virus production was carried out by using Lenti-X™ Packaging Single Shots Protocol (Clonetech #631276). Viral particles were used to transduce HEK293T cells (ATCC #CRL-3216, ATCC Manassas, Va.), which were subsequently selected with puromycin to generate stable cell line. Cells were maintained at 37° C. and 5% CO2 in DMEM-F12 (Hyclone #SH30023.02) supplemented with 10% heat-inactivated fetal bovine serum (Gibco #16000-044), 2 mM L-glutamine (Gibco #25030-081), 100 U/ml penicillin, and 100 μg/ml streptomycin (Gibco #^15140-122).
HEK293T cells carrying the ATF4 luciferase reporter were plated on 96-well plates (Nunc) at 10,000 cells per well. Cells were treated two days after seeding with 100 nM thapsigargin (Tg) (Sigma-Aldrich #T9033) in the presence of different concentrations of selected compounds ranging from 1 nM to 10 μM. Cells without treatment or cells treated with Tg alone were used as controls. Assay plates containing cells were incubated for 3 hours at 37° C.
Luciferase reactions were performed using Luciferase Assay System (Promega #E1501) as specified by the manufacturer. Luminescence was read with an integration time of 1 s and a gain of 110 using a Cytation-5 multi-mode microplate reader (BioTek). Relative luminescence units were normalized to Tg treatment (0% inhibition) and untreated cells (100% inhibition) and the percentage of ATF4 inhibition was calculated.
Accordingly, inhibition of ATF4 expression as a result of the test compound indicates suppression of the ISR pathway.

[2] = test system: Chinese hamster ovary (CHO) cells; assay: Protein synthesis assay (puromycin incorporation, western blot); assay type: cell-based; settings: 2 hours, media alone = 100%; for activity at 1 µM: Cricetulus griseus, unstressed CHO cells (without Tg), 1 μM test compound, read-out: % Protein synthesis relative to untreated (1 μM test compound); for % Recovery of protein synthesis (1 μM test compound): stressed CHO cells, 300 nM Tg plus 1 μM test compound, Tg alone = 0%
Method: Chinese hamster ovary (CHO) cells were maintained at 37° C. and 5% CO2 in Dulbecco's Modified Eagle's Media (DMEM) supplemented with 10% fetal bovine serum, 2 mM L-glutamine, 100 U/ml penicillin, and 100 μg/ml streptomycin. After reaching 80% of confluence, cells were detached and seeded on 6 well plates in complete media, allowed to recover overnight and treated for 2 hours with 1 μM of the test compound (to assess protein synthesis levels in unstressed condition), or for 2 hours with 300 nM Tg in the presence of 1 μM of the test compound (to assess the recovery of protein synthesis in a stressed condition). Cells with Tg alone were used as controls.
After the 2 hours treatments, media were replaced by adding 10 μg/ml puromycin (Sigma Aldrich #P8833) in complete media for 30 min. Media were removed and cells were lysed with SDS-PAGE lysis buffer. Lysates were transferred to 1.5 ml tubes and sonicated for 3 min and total protein amount were quantified using BCA Protein Assay Kit (Pierce). Equal amount of protein (30 μg) was loaded on SDS-PAGE gels. Proteins were transferred onto […] PVDF membranes (BioRad) and probed with primary antibodies diluted in Tris-buffered saline supplemented with 0.1% Tween 20 (Merck #S6996184 505) and 3% bovine serum albumin (Rockland #BSA-50).
Puromycin (12D10) (Merck #MABE343) and j-actin (Sigma Aldrich #A5441) antibodies were used as primary antibody. A HRP-conjugated secondary antibody (Rockland) was employed to detect immune-reactive bands using enhanced chemiluminescence (ECL Western Blotting Substrate, Pierce). Quantification of protein bands was done by densitometry using ImageJ software.
Percent increase of protein synthesis in unstressed cells (without Tg treatment) in the presence of media alone or certain test compounds is shown in Table 3. The percentage levels were normalized to the media alone condition, which correspond to 100% protein synthesis.
Percent recovery of protein synthesis in stressed cells (with Tg treatment) due to the test compounds at 1 μM is also shown in Table 3. The levels were normalized to the media alone and Tg alone conditions, which correspond to 100% and 0% respectively.

| SMILES | IC50 [1] [nM] | activity at 1 µM [2] [%] | % Recovery of protein synthesis (1 μM test compound) [2] [%] |
| --- | --- | --- | --- |
| NC(COc1ccc(Cl)c(F)c1)CN1CCC(NC(=O)c2ccc3cc(Cl)ccc3n2)CC1 (centres unmarked) [Compound 1, N-(1-(2-amino-3-(4-chloro-3-fluorophenoxy)propyl)piperidin-4-yl)-6-chloroquinoline-2-carboxamide] | > 1000 | 167 | 233.4 |
| O=C(COc1ccc(Cl)c(F)c1)NC1CC2CCC1CN2CC(O)COc1ccc(Cl)c(F)c1 (centres unmarked) [Compound 2, 2-(4-chloro-3-fluorophenoxy)-N-(2-(3-(4-chloro-3-fluorophenoxy)-2-hydroxypropyl)-2-azabicyclo[2.2.2]octan-5-yl)acetamide] | < 1000 | 98.3 | 252.0 |
| O=C(COc1ccc(Cl)c(F)c1)N[C@H]1CC[C@H](NC(=O)c2nc3ccc(Cl)cc3[nH]2)CC1 [Compound 3, trans-6-chloro-N-(4-(2-(4-chloro-3-fluorophenoxy)acetamido)cyclohexyl)-1H-benzo[d]imidazole-2-carboxamide] | < 1000 | 120 | 109.9 |
| O=C(NC1CCN(CC(O)COc2ccc(Cl)c(F)c2)CC1)c1nc2ccc(Cl)cc2[nH]1 (centres unmarked) [Compound 4, 6-chloro-N-(1-(3-(4-chloro-3-fluorophenoxy)-2-hydroxypropyl)piperidin-4-yl)-1H-benzo[d]imidazole-2-carboxamide] | < 1000 | 164 | 246.6 |
| O=C(COc1ccc(Cl)c(F)c1)NCC1CCN(CC(O)COc2ccc(Cl)c(F)c2)CC1 (centres unmarked) [Compound 5, 2-(4-chloro-3-fluorophenoxy)-N-((1-(3-(4-chloro-3-fluorophenoxy)-2-hydroxypropyl)piperidin-4-yl)methyl)acetamide] | > 1000 | 82.5 | 71.9 |
| O=C(NCC1CCN(CC(O)COc2ccc(Cl)c(F)c2)CC1)c1cc2cc(Cl)ccc2o1 (centres unmarked) [Compound 6, 5-chloro-N-((1-(3-(4-chloro-3-fluorophenoxy)-2-hydroxypropyl)piperidin-4-yl)methyl)benzofuran-2-carboxamide] | < 1000 | 179 | – |
| O=C(NCC1CCN(CC(O)COc2ccc(Cl)c(F)c2)CC1)c1ccc2cc(Cl)ccc2n1 (centres unmarked) [Compound 7, 6-chloro-N-((1-(3-(4-chloro-3-fluorophenoxy)-2-hydroxypropyl)piperidin-4-yl)methyl)quinoline-2-carboxamide] | > 1000 | 114 | 131.9 |
| O=C(N[C@H]1CC[C@H](NCC(O)COc2ccc(Cl)cc2)CC1)c1nc2ccc(Cl)cc2[nH]1 (stereo partly drawn) [Compound 8, trans-6-chloro-N-(4-((3-(4-chlorophenoxy)-2-hydroxypropyl)amino)cyclohexyl)-1H-benzo[d]imidazole-2-carboxamide] | > 1000 | 175 | 128.3 |
| O=C(COc1ccc(Cl)c(F)c1)NC[C@H]1CC[C@H](NC(=O)COc2ccc(Cl)c(F)c2)CC1 [Compound 9, trans-2-(4-chloro-3-fluorophenoxy)-N-((4-(2-(4-chloro-3-fluorophenoxy)acetamido)cyclohexyl)methyl)acetamide] | 72.4 | 119 | 26.1 |
| O=C(COc1ccc(Cl)c(F)c1)NC[C@H]1CC[C@H](NC(=O)c2ccc3cc(Cl)ccc3n2)CC1 [Compound 12, trans-6-chloro-N-(4-((2-(4-chloro-3-fluorophenoxy)acetamido)methyl)cyclohexyl)quinoline-2-carboxamide] | 120 | 200 | 187.4 |
| O=C(COc1ccc(Cl)c(F)c1)NC[C@H]1CC[C@H](NC(=O)c2cc3cc(Cl)ccc3o2)CC1 [Compound 13, trans-5-chloro-N-(4-((2-(4-chloro-3-fluorophenoxy)acetamido)methyl)cyclohexyl)benzofuran-2-carboxamide] | 19 | 129 | 120.4 |
| O=C(COc1ccc(Cl)c(F)c1)NC[C@H]1CC[C@H](NCC(O)COc2ccc(Cl)c(F)c2)CC1 (stereo partly drawn) [Compound 14, trans-2-(4-chloro-3-fluorophenoxy)-N-((4-((3-(4-chloro-3-fluorophenoxy)-2-hydroxypropyl)amino)cyclohexyl)methyl)acetamide] | > 10000 | 150 | 53.2 |
| O=C(COc1ccc(Cl)cc1)N[C@H]1CC[C@H](CNC(=O)c2cc3cc(Cl)ccc3o2)CC1 [Compound 15, trans-5-chloro-N-((4-(2-(4-chlorophenoxy)acetamido)cyclohexyl)methyl)benzofuran-2-carboxamide] | 1.45 | 204 | 176.3 |
| COc1ccc2oc(C(=O)NC[C@H]3CC[C@H](NC(=O)COc4ccc(Cl)c(F)c4)CC3)cc2c1 [Compound 16, trans-N-((4-(2-(4-chloro-3-fluorophenoxy)acetamido)cyclohexyl)methyl)-5-methoxybenzofuran-2-carboxamide] | 5.25 | 147 | 102.4 |
| O=C(COc1ccc(Cl)c(F)c1)N[C@H]1CC[C@H](CNC(=O)c2ccc(Cl)cc2)CC1 [Compound 17, trans-4-chloro-N-((4-(2-(4-chloro-3-fluorophenoxy)acetamido)cyclohexyl)methyl)benzamide] | 2.36 | 96.5 | 49.5 |
| O=C(COc1ccc(Cl)c(F)c1)N[C@H]1CC[C@H](CNC(=O)c2ccc(OC(F)(F)F)cc2)CC1 [Compound 18, trans-N-((4-(2-(4-chloro-3-fluorophenoxy)acetamido)cyclohexyl)methyl)-4-(trifluoromethoxy)benzamide] | 5.63 | 105 | 60.0 |
| O=C(COc1ccc(Cl)c(F)c1)N[C@H]1CC[C@H](CNC(=O)c2ccc(Cl)cn2)CC1 [Compound 19, trans-5-chloro-N-((4-(2-(4-chloro-3-fluorophenoxy)acetamido)cyclohexyl)methyl)picolinamide] | 20.1 | 131 | 32.5 |
| O=C(COc1ccc(Cl)c(F)c1)N[C@H]1CC[C@H](CNC(=O)c2ccc(C(F)(F)F)cn2)CC1 [Compound 20, trans-N-((4-(2-(4-chloro-3-fluorophenoxy)acetamido)cyclohexyl)methyl)-5-(trifluoromethyl)picolinamide] | 2.43 | 75.6 | 34.8 |
| O=C(COc1ccc(Cl)c(F)c1)N[C@H]1CC[C@H](CNC(=O)c2cnc(C(F)F)cn2)CC1 [Compound 21, trans-N-((4-(2-(4-chloro-3-fluorophenoxy)acetamido)cyclohexyl)methyl)-5-(difluoromethyl)pyrazine-2-carboxamide] | 17.8 | 67.8 | 11.4 |

From patent publication US20210317102A1, “INHIBITORS OF INTEGRATED STRESS RESPONSE PATHWAY” (Praxis Biotech LLC, priority 2019, published 2021)
